We go through three compounds from patent EP1428519A2, “5-Lipooxygenase inhibitors in deodorants and antiperspirants” (Henkel Kommanditgesellschaft auf Aktien, priority 2002, dated 2004).

Where a name gives a salt, the structure may show the parent alone.

This test addresses T1, 5-Lipoxigenase (Homo sapiens, UniProt P09917).
T1 construct: durch Ultraschallbehandlung aufgeschlossen; Größere Zellbestandteile wurden bei 100 000 g abzentrifugiert, wobei 5-Lipoxigenase im Überstand verblieb; endogenous in cells; sonicated; 100 000 g supernatant
T1 sequence (P09917 1-674): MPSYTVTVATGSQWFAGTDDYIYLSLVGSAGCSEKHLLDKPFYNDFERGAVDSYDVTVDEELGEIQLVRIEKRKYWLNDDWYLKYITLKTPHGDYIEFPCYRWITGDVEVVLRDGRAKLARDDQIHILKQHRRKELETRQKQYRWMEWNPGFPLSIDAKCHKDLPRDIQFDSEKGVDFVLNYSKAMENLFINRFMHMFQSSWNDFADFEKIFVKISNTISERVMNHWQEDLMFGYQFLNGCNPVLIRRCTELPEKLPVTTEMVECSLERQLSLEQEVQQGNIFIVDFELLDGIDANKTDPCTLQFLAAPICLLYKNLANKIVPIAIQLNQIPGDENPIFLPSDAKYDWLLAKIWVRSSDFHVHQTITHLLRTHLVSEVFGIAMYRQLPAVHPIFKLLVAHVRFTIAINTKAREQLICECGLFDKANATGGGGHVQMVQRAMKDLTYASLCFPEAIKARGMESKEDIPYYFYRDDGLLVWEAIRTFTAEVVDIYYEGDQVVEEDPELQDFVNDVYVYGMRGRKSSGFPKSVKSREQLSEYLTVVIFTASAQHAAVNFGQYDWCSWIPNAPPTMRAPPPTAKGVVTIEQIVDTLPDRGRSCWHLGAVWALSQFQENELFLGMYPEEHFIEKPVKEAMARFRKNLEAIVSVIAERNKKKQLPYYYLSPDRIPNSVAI
Nature of the test: 5-lipoxygenase inhibition in vitro (supernatant of differentiated leukaemia cells, leukotrienes quantified by HPLC). The format is biochemical, menschlichen. The note with it: 100 µg raw material as is per ml supernatant; 30 s preincubation at 37° C, 10 min reaction with arachidonic acid; activity without test substance = 100 %; solvent per substance (Ethanol, Wasser or DMSO). The source says: Die 5-Lipoxigenase wurde aus menschlichen Leukämie-Zelllinien durch Zugabe von Dimethylsulfoxid (DMSO), TGF-β1 (transforming growth factor β1) und Dihydroxyvitamin D3 differenziert und dabei zugleich die 5-Lipoxigenase induziert. Nach 4 Tagen im Differenzierungsmedium wurden die Zellen geerntet, in einem Glucose-haltigen PBS-Puffer aufgenommen und durch Ultraschallbehandlung aufgeschlossen. Größere Zellbestandteile wurden bei 100 000 g abzentrifugiert, wobei 5-Lipoxigenase im Überstand verblieb.
Die Bestimmung der 5-Lipoxigenase-Inhibitionswirkung erfolgte gemäß Werz et al., Naunyn-Schmiedeberg's Arch. Pharmacol., 1997, Vol. 456, 441 - 445.
Dem Überstand aus der 5-Lipoxigenase-Herstellung wurden Adenosintriphosphat (ATP) und die zu testenden Rohstoffe zugesetzt. Im vorliegenden Falle wurden 100 µg Rohstoff, so wie er ist, pro Milliliter Überstand eingesetzt. Als Lösemittel wurden je nach Substanz Wasser, Ethanol, DMSO oder Chloroform verwendet.
Die Ansätze wurden für 30 Sekunden bei 37° C vorinkubiert. Anschließend wurde die 5-Lipoxigenase-Reaktion durch Zusatz von Arachidonsäure gestartet. Nach 10 Minuten Reaktionszeit wurde die Reaktion durch Zugabe von Methanol gestoppt. Die durch die Einwirkung der 5-Lipoxigenase auf Arachidonsäure produzierten Leukotriene wurden mittels HPLC quantifiziert. Die Aktivität von 5-Lipoxigenase ohne Zugabe von Testsubstanz wurde zu 100 % gesetzt und die Aktivität der 5-Lipoxigenase mit Hemmstoff darauf bezogen. In Tabelle 1 ist die Hemmwirkung der einzelnen Testsubstanzen in % angegeben.
As to `CC(C)=CCCC(C)(O)C1CC=C(C)CC1` (stereo not drawn) [α-Bisabolol], the Hemmwirkung was 90,3%.

`O=C(O)CCCCC1CCSS1` (stereo not drawn) [α-Liponsäure, reference compound]: the Hemmwirkung was 40,4%.

As to `CC[C@H](CC[C@@H](C)[C@H]1CC[C@H]2[C@@H]3CC=C4C[C@@H](OS(=O)(=O)O)CC[C@]4(C)[C@H]3CC[C@]12C)C(C)C` [Phytocohesine, Sodium Beta-Sitosteryl Sulfate], the Hemmwirkung was 62,8%.
